From US20140038953A1, “COMPOSITIONS AND METHODS FOR CARDIOVASCULAR DISEASE” (THE GENERAL HOSPITAL CORPORATION, priority 2011, published 2014)

Tested on: HepG2 cells
Assay: ApoB-100 secretion in HepG2 cells (ELISA)
Assay type: cell-based, human
Conditions: compound 13 100 nM, atorvastatin 1 nM, ALK3-Fc 400 ng/mL
Experimental: Hepatoma G2 (HepG2) cells and human aortic endothelial cells (HAECs) were purchased from the American type culture collection (Manassas, Va.). HepG2 cells were maintained in Eagle's Minimum Essential Medium (EMEM) supplemented with 10% fetal bovine serum, 100 units/ml of penicillin, 0.1 mg/ml of streptomycin and glutamine. HAECs were cultured in endothelial cell basal medium (EBM 2) supplemented with the EBM2 bullet kit (Lonza, Basel, Switzerland). For experiments, cells were seeded into 6 or 12-well plates (BD Falcon, Franklin Lakes, N.J.) at a concentration of 0.5×10^6 cells per 5 mL of media. HAECs were maintained in EBM 2 with 0.1% FBS without additional growth factors for all experiments. HepG2 cells were grown to 70% confluence before they were incubated in EMEM enriched with 0.1% FBS. ApoB-100 measurements were performed in supernatants from HepG2 that had been incubated in EMEM containing 0.5% bovine serum albumin using a commercially available Human ApoB-100 ELISA kit (Mabtech AB, Nacka Strand, Sweden). BMP2 protein measurements were performed in supernatants from HAECs that had been incubated in EBM2 containing 0.1% FBS using a BMP2 ELISA kit (R&D Systems).

Compound: CC(C)c1c(C(=O)Nc2ccccc2)c(-c2ccccc2)c(-c2ccc(F)cc2)n1CC[C@@H](O)C[C@@H](O)CC(=O)O [Atorvastatin, atorvastatin, reference compound]
- BMP2-induced ApoB-100 secretion (BMP2 100 ng/mL): did not prevent the induction of ApoB-100 synthesis by BMP2
- basal ApoB-100 secretion (absence of BMP2): reduced basal apolipoprotein B100 (ApoB-100) secretion
- basal ApoB-100 secretion (absence of BMP2) (listed as atorvastatin): reduced ApoB-100 production in the absence of BMP2
